We go through one compound from patent US5366733A, “Method for the treatment of periodontal disease by sustained delivery of a therapeutic agent to the periodontal pocket, and composition of matter therefor” (priority 1991, dated 1994).

Each structure is given as a SMILES string.

For data set [1] the following is noted: dog, in vivo.
Protocol: Therefore, a study to evaluate four different minocycline periodontal formulations relative to determining minocycline levels in crevicular fluid was conducted in a dog model. The study utilized beagle dogs with surgically created "chronic" intrabony periodontal defects. This model entails the extraction of the two lower fourth premolars and the induction of surgically created intrabony defects at the mesial surface of the first molars and distal surface of the third premolars.
In sequence, the defects were created as follows: First, the lower fourth premolars were extracted, sockets were allowed to heal for one month, and dogs received a full mouth scaling and tooth cleaning. […] Dogs were monitored for an additional four weeks.
For evaluation of crevicular levels of minocycline, dogs were placed under general anesthesia, and the various formulations were administered into the periodontal pockets associated with the created defects. […] The strip was then removed, and the relative amount of fluid was determined by a Periotron 6000 instrument. […]
Strips were assayed for minocycline by a microbiological technique that involves use of the minocycline-susceptible bacterium, Bacillus cereus. […] Zones of inhibited bacterial growth were plotted, and the quantity of minocycline present was determined by comparison with zones obtained with minocycline solutions of known concentration. […]
Data set [2] has as its system organisms associated with periodontal disease. Particulars: cited from earlier work.

`CN(C)c1ccc(O)c2c1C[C@H]1C[C@H]3[C@H](N(C)C)C(O)=C(C(N)=O)C(=O)[C@@]3(O)C(O)=C1C2=O` [minocycline, 7-dimethylamino-6-deoxy-6-demethyltetracycline]: the “Periods for which minimum inhibitory concentrations (MIC's) can be achieved” value in data set [1] is “up to two”. Besides, the “MIC's for organisms associated with periodontal disease” value in data set [2] is 0.05 to 1.56 µg/mL.
